Measurements as given in patent US9107894B2, “Formulation to improve gastrointestinal function” (University of Florida Research Foundation, Inc., priority 2007, dated 2015).

How the values were obtained:
Caco-2 cells = assay: Poly (I:C) induced IL-8 production in differentiated Caco-2 cells (ELISA); format: cell-based, human
Procedure: In order to determine whether DHA has an effect on inducers of inflammation other than TNFα, stimulation of another Toll-like receptor was evaluated. Polyriboinosinic polyribocytidylic acid [poly(I:C)] is a synthetic double-stranded RNA that is used experimentally to model viral infections. It has recently been identified as one of the critical stimuli for toll like receptor 3 (TLR3). The effects of n-3 PUFA on viral induced inflammation in intestinal epithelia have not been reported.
Docosahexaenoic acid (DHA, 22:6 n-3) was used as n-3 PUFA and linoleic acid (LA, 18:2 n-6) as n-6 PUFA. Differentiated Caco-2 cells were pretreated with various doses of DHA or LA for 24 hours. The cells were then treated with poly (I: C) 50 ug/ml for another 24 hours. The culture medium was collected to measure the IL-8 production by ELISA. The first experiment determined the effect of Poly (I: C) on stimulation of IL-8, a major pro-inflammatory chemokine. Poly (I:C) increased IL-8 production by 10 fold.

CINC peptide = CINC peptide in gastrostomy fed (pup-in-a-cup), LPS treated rat pups; format: in vivo; conditions: for decrease of intestinal CINC peptide: intestine
Description: Using the “pup-in-a-cup” rat model, protein deprivation and supplementation with GLN or GLU in the developing rat small intestine were examined. Four groups of 6-7 d old pups were fed via a gastrostomy tube providing 100% or 25% protein (relative to mother fed rats) rat milk substitute (RMS) with and without additional GLN or glutamate (GLU) for 6 d. Pups receiving the 100% protein RMS experienced better growth than the 3 groups of pups receiving the 25% protein RMS+/−GLN/GLU supplementation.
(§1) Cytokine induced neutrophil chemoattractant (CINC) is a rodent chemokine that performs neutrophil chemoattractant functions similar to IL-8 in the human. Large quantities of this proinflammatory mediator can be detrimental.
Intestinal CINC peptide in the LPS treated pups provided 100% and 25% protein was elevated about 13 fold compared to the mother reared pups. GLN and GlU decreased intestinal CINC peptide by 73 and 80%, respectively.

CINC mRNA = CINC mRNA in small intestine by RT-PCR, protein deprived LPS treated rat pups; format: in vivo; conditions: 25% protein-fed, densitometry
Procedure: as §1, with “detrimental. […] To clarify the effects of diets on the CINC mRNA in small intestine, RT-PCR was performed.” for “detrimental.”

myeloperoxidase (MPO) = assay: Intestinal myeloperoxidase activity in gastrostomy fed, LPS treated rats; format: in vivo, rat
Description: An approximate 6-fold elevation of intestinal myeloperoxidase (MPO) activity in the gastrostomy fed, LPS treated rats was decreased by GLN and Glu by 92% and 54%, respectively.

[1] = tested on: developing rat small intestine; assay: Pup-in-a-cup rat model: growth, villus size and tight junction proteins under protein deprivation; format: in vivo; conditions: for villus height and area: 6-7 d old pups fed rat milk substitute for 6 d; for growth of pups: 6-7 d old pups fed rat milk substitute via gastrostomy tube for 6 d
Description: Using the “pup-in-a-cup” rat model, protein deprivation and supplementation with GLN or GLU in the developing rat small intestine were examined. Four groups of 6-7 d old pups were fed via a gastrostomy tube providing 100% or 25% protein (relative to mother fed rats) rat milk substitute (RMS) with and without additional GLN or glutamate (GLU) for 6 d. […] Villus size is a major component of absorptive capability. […] The tight junction proteins play an integral role in paracellular permeability of the intestinal barrier, and two of these, claudin and occludin were evaluated using Western blotting.

IEC-6 = assay: Proliferation of rat intestinal crypt cells (IEC-6) in the absence of GLN; format: cell-based; conditions: GLN synthetase inhibited cells, all treatment doses
Procedure: Studies were conducted to evaluate whether glutamate, a mixture of nucleotide monophosphates, arginine, or glucosamine could support proliferation of rat intestinal crypt cells (IEC-6) in the absence of GLN.

H4 cells = assay: TNFα-induced IL-8 production in H4 cells; format: cell-based, human; conditions: H4, 24 h pretreatment, TNF-α 1 μg/L for 24 h
Procedure: EPA and DHA were used as n-3 PUFA and linoleic acid (LA, 18:2 n-6) as n-6 PUFA. The H4 and Caco-2 cells were pretreated with different doses of EPA, DHA and LA separately and in different combinations for 24 hours. Then TNF-α (1 μg/L for H4, 50 μg/L for Caco-2 cells) was added to cell culture medium and the cells were incubated for another 24 hours. The lower dose used in the H4 cell line reflects their exquisite sensitivity to inflammatory stimuli.
The effects of different doses of fatty acids on TNFα-induced IL-8 production were evaluated and are seen in FIGS. 2A-B.

BBDP rats = assay: Mortality due to diabetes in BBDP rats; format: in vivo, rat

CC/C=C\C/C=C\C/C=C\C/C=C\C/C=C\C/C=C\CCC(=O)O [DHA, docosahexaenoic acid]
decrease of poly (I:C)-induced IL-8 production (Caco-2 cells; 100 μM, 24 h pretreatment, poly (I:C) 50 ug/ml 24 h): 75%

NC(=O)CC[C@H](N)C(=O)O [GLN, glutamine]
decrease of intestinal CINC peptide (CINC peptide): 73% | plasma CINC peptide (CINC peptide): decreased plasma CINC peptide | CINC mRNA expression in small intestine (CINC mRNA): decreased CINC mRNA to a level similar to mother-fed animals | decrease of intestinal myeloperoxidase (MPO) activity (myeloperoxidase (MPO)): 92% | villus height and area [1]: did not differ | growth of pups [1]: neither GLN nor GLU alone can rescue the effects of protein deprivation

N[C@@H](CCC(=O)O)C(=O)O [Glu, glutamate]
decrease of intestinal CINC peptide (CINC peptide): 80% | plasma CINC peptide (CINC peptide): but not Glu decreased plasma CINC peptide | CINC mRNA expression in small intestine (CINC mRNA): did not show the same effect as GLN | decrease of intestinal myeloperoxidase (MPO) activity (myeloperoxidase (MPO)): 54% | proliferation (IEC-6): decrease in proliferation compared with cells treated with GLN | villus height and area [1]: did not differ | growth of pups [1]: neither GLN nor GLU alone can rescue the effects of protein deprivation

CCCCC/C=C\C/C=C\CCCCCCCC(=O)O [LA, linoleic acid]
poly (I:C)-induced IL-8 production (Caco-2 cells; doses of 50 and 100 μM, 24 h pretreatment): did not significantly reduce IL-8 production | effect on TNF-α induced IL-8 production (H4 cells): greater inflammatory effects on IL-8 production in H4 than in Caco-2 cells

CCCC(=O)[O-].[Na+] [NaB]
mortality due to diabetes (BBDP rats): decrease mortality due to diabetes

N=C(N)NCCC[C@H](N)C(=O)O [arginine]
proliferation (IEC-6): decrease in proliferation compared with cells treated with GLN

N[C@H]1C(O)O[C@H](CO)[C@@H](O)[C@@H]1O (some centres unmarked) [glucosamine]
proliferation (IEC-6): decrease in proliferation compared with cells treated with GLN

Polyriboinosinic polyribocytidylic acid [Poly (I:C)]
increase of IL-8 production (Caco-2 cells; poly (I:C) 50 ug/ml, 24 hours): 10 fold
